From ChEMBL document CHEMBL4190322, “Structure-based development of novel triazoles and related thiazolotriazoles as anticancer agents and Cdc25A/B phosphatase inhibitors. Synthesis, in vitro biological evaluation, molecular docking and in silico ADME-T studies” (Eur J Med Chem, 2017)
Active and inactive are the calls of the source. The calls are words filed in the database; no cut-off is given here.

What was measured:
Format in all cases: functional
786-0 = test: Growth inhibition of human 786-0 cells at 10 uM after 48 hrs by SRB assay relative to control
OVCAR-8 = test: Growth inhibition of human OVCAR8 cells at 10 uM after 48 hrs by SRB assay relative to control
UACC-62 = test: Growth inhibition of human UACC62 cells at 10 uM after 48 hrs by SRB assay relative to control
HCT-116 = test: Growth inhibition of human HCT116 cells at 10 uM after 48 hrs by SRB assay relative to control
UO-31 = test: Growth inhibition of human UO31 cells at 10 uM after 48 hrs by SRB assay relative to control; details: UO-31, 48 h, read-out: GI
NCI-H226 = test: Growth inhibition of human NCI-H226 cells at 10 uM after 48 hrs by SRB assay relative to control; details: NCI-H226, 48 h, read-out: GI
PC-3 = test: Growth inhibition of human PC3 cells at 10 uM after 48 hrs by SRB assay relative to control; details: PC-3, 48 h, read-out: GI
SK-MEL-2 = test: Growth inhibition of human SK-MEL-2 cells at 10 uM after 48 hrs by SRB assay relative to control
Malme-3M = test: Growth inhibition of human MALME-3M cells at 10 uM after 48 hrs by SRB assay relative to control
U-251 = test: Growth inhibition of human U251 cells at 10 uM after 48 hrs by SRB assay relative to control; details: U-251, 48 h, read-out: GI
MDA-MB-468 = test: Growth inhibition of human MDA-MB-468 cells at 10 uM after 48 hrs by SRB assay relative to control
SK-MEL-5 = test: Growth inhibition of human SK-MEL-5 cells at 10 uM after 48 hrs by SRB assay relative to control
K562 = test: Growth inhibition of human K562 cells at 10 uM after 48 hrs by SRB assay relative to control; details: K562, 48 h, read-out: GI
SK-OV-3 = test: Growth inhibition of human SKOV3 cells at 10 uM after 48 hrs by SRB assay relative to control
RPMI-8226 = test: Growth inhibition of human RPMI8226 cells at 10 uM after 48 hrs by SRB assay relative to control; details: RPMI-8226, 48 h, read-out: GI
NCI/ADR-RES = test: Growth inhibition of human NCI/ADR-RES cells at 10 uM after 48 hrs by SRB assay relative to control
OVCAR-3 = test: Growth inhibition of human OVCAR3 cells at 10 uM after 48 hrs by SRB assay relative to control
SNB-75 = test: Growth inhibition of human SNB75 cells at 10 uM after 48 hrs by SRB assay relative to control; details: SNB-75, 48 h, read-out: GI
KM12 = test: Growth inhibition of human KM12 cells at 10 uM after 48 hrs by SRB assay relative to control
NCI-H23 = test: Growth inhibition of human NCI-H23 cells at 10 uM after 48 hrs by SRB assay relative to control; details: NCI-H23, 48 h, read-out: GI
LOX IMVI = test: Growth inhibition of human LOXIMVI cells at 10 uM after 48 hrs by SRB assay relative to control; details: read-out: GI
MCF7 = test: Growth inhibition of human MCF7 cells at 10 uM after 48 hrs by SRB assay relative to control; details: MCF7, 48 h, read-out: GI
HL-60 = test: Growth inhibition of human HL60 cells at 10 uM after 48 hrs by SRB assay relative to control
HT-29 = test: Growth inhibition of human HT-29 cells at 10 uM after 48 hrs by SRB assay relative to control
NCI-H522 = test: Growth inhibition of human NCI-H522 cells at 10 uM after 48 hrs by SRB assay relative to control; details: NCI-H522, 48 h, read-out: GI
MOLT-4 = test: Growth inhibition of human MOLT4 cells at 10 uM after 48 hrs by SRB assay relative to control
RXF 393 = test: Growth inhibition of human RXF393 cells at 10 uM after 48 hrs by SRB assay relative to control
SNB-19 = test: Growth inhibition of human SNB19 cells at 10 uM after 48 hrs by SRB assay relative to control
SF-268 = test: Growth inhibition of human SF268 cells at 10 uM after 48 hrs by SRB assay relative to control; details: SF-268, 48 h, read-out: GI
A498 = test: Growth inhibition of human A498 cells at 10 uM after 48 hrs by SRB assay relative to control; details: A498, 48 h, read-out: GI
HOP-92 = test: Growth inhibition of human HOP92 cells at 10 uM after 48 hrs by SRB assay relative to control; details: HOP-92, 48 h, read-out: GI
SR = test: Growth inhibition of human SR cells at 10 uM after 48 hrs by SRB assay relative to control; details: read-out: GI
OVCAR-4 = test: Growth inhibition of human OVCAR4 cells at 10 uM after 48 hrs by SRB assay relative to control
NCI-H322M = test: Growth inhibition of human NCI-H322M cells at 10 uM after 48 hrs by SRB assay relative to control
CAKI-1 = test: Growth inhibition of human Caki1 cells at 10 uM after 48 hrs by SRB assay relative to control; details: CAKI-1, 48 h, read-out: GI
UACC-257 = test: Growth inhibition of human UACC257 cells at 10 uM after 48 hrs by SRB assay relative to control
A549 = test: Growth inhibition of human A549 cells at 10 uM after 48 hrs by SRB assay relative to control; details: A549, 48 h, read-out: GI
Hs-578T = test: Growth inhibition of human Hs 578T cells at 10 uM after 48 hrs by SRB assay relative to control
HOP-62 = test: Growth inhibition of human HOP62 cells at 10 uM after 48 hrs by SRB assay relative to control
CCRF-CEM = test: Growth inhibition of human CCRF-CEM cells at 10 uM after 48 hrs by SRB assay relative to control; details: read-out: GI

Row | Compound | growth inhibition (GI) (OVCAR-8) | growth inhibition (GI) (UACC-62) | inhibition of growth at 10 µM (UO-31) [%] | inhibition of growth at 10 µM (NCI-H226) [%] | inhibition of growth at 10 µM (PC-3) [%] | growth inhibition (GI) (Malme-3M) | inhibition of growth at 10 µM (U-251) [%] | growth inhibition (GI) (MDA-MB-468) | growth inhibition (GI) (SK-MEL-5) | inhibition of growth at 10 µM (K562) [%] | inhibition of growth at 10 µM (RPMI-8226) [%] | growth inhibition (GI) (OVCAR-3) | inhibition of growth at 10 µM (SNB-75) [%] | inhibition of growth at 10 µM (NCI-H23) [%] | inhibition of growth at 10 µM (LOX IMVI) [%] | inhibition of growth at 10 µM (MCF7) [%] | growth inhibition (GI) (HL-60) | growth inhibition (GI) (HT-29) | inhibition of growth at 10 µM (NCI-H522) [%] | growth inhibition (GI) (RXF 393) | also measured
1 | COc1ccc(Cc2nnc3sc(SCc4ccccc4)nn23)cc1 | inactive | inactive | 20.6 | 14 | 6 | inactive | 2.8 | inactive | inactive | 12.4 | 2.01 | inactive | 11 | 7.22 | 15.8 | 5.28 | inactive | inactive | 16.8 | inactive | inhibition of growth at 10 µM (786-0; 786-0, 48 h, read-out: GI): 6.46%; inhibition of growth at 10 µM (HCT-116; HCT-116, 48 h, read-out: GI): 1.27%; growth inhibition (GI) (SK-MEL-2): inactive; inhibition of growth at 10 µM (SK-OV-3; SK-OV-3, 48 h, read-out: GI): 1.1%; inhibition of growth at 10 µM (NCI/ADR-RES; read-out: GI): 3.11%; inhibition of growth at 10 µM (KM12; KM12, 48 h, read-out: GI): 6%; inhibition of growth at 10 µM (MOLT-4; MOLT-4, 48 h, read-out: GI): 11.6%; inhibition of growth at 10 µM (SNB-19; SNB-19, 48 h, read-out: GI): 10.6%; inhibition of growth at 10 µM (SF-268): 2.02%; inhibition of growth at 10 µM (A498): 19.7%; inhibition of growth at 10 µM (HOP-92): 27.6%; inhibition of growth at 10 µM (SR): 12.9%; inhibition of growth at 10 µM (OVCAR-4; OVCAR-4, 48 h, read-out: GI): 8.58%; growth inhibition (GI) (NCI-H322M): inactive; inhibition of growth at 10 µM (CAKI-1): 5.66%; growth inhibition (GI) (UACC-257): inactive; inhibition of growth at 10 µM (A549): 3.43%; growth inhibition (GI) (Hs-578T): inactive; growth inhibition (GI) (HOP-62): inactive; inhibition of growth at 10 µM (CCRF-CEM): 25.1%
2 | COc1ccc(Cc2nnc3sc(SC)nn23)cc1 | inactive | inactive | 12.7 | 4.76 | 2.19 | inactive | 3.17 | inactive | inactive | 3.47 | 1.21 | inactive | 8.34 | 5.4 | 2.73 | 8.21 | inactive | inactive | 12.2 | inactive | growth inhibition (GI) (786-0): inactive; growth inhibition (GI) (HCT-116): inactive; inhibition of growth at 10 µM (SK-MEL-2; SK-MEL-2, 48 h, read-out: GI): 14.7%; growth inhibition (GI) (SK-OV-3): inactive; growth inhibition (GI) (NCI/ADR-RES): inactive; growth inhibition (GI) (KM12): inactive; growth inhibition (GI) (MOLT-4): inactive; growth inhibition (GI) (SNB-19): inactive; inhibition of growth at 10 µM (SF-268): 2.15%; inhibition of growth at 10 µM (A498): 3.37%; inhibition of growth at 10 µM (HOP-92): 13.4%; inhibition of growth at 10 µM (SR): 7.53%; growth inhibition (GI) (OVCAR-4): inactive; growth inhibition (GI) (NCI-H322M): inactive; inhibition of growth at 10 µM (CAKI-1): 4.37%; inhibition of growth at 10 µM (UACC-257; UACC-257, 48 h, read-out: GI): 9.07%; inhibition of growth at 10 µM (A549): 4.46%; growth inhibition (GI) (Hs-578T): inactive; growth inhibition (GI) (HOP-62): inactive; inhibition of growth at 10 µM (CCRF-CEM): 5.04%
